Laboratory results: patent US20080095856A1, “Encapsulated Nanoparticles for Drug Delivery” (priority 2006, published 2008)
Peptide text beside a SMILES is read from it. * marks the point of attachment. X1 = O=C(O)[C@H]1CSC(c2nc3ccc(N*)cc3s2)=N1

How the values were obtained:
[1] = Biodistribution of SKLQ-aminoluciferin by BLI in L2G85 mice; format: in vivo
Source text: PSA is a chymotrypsin-like enzyme which specifically cleaves the C-terminus of glutamine (Q) in the peptide sequence, SKLQ-aminoluciferin. Prodrugs have been used to take advantage of this specificity of PSA. […] Where the peptides or prodrugs are encapsulated with polymer, the current shortcomings in delivery of tumor-specific peptides is overcome. The peptides or drugs can be encapsulated with a protective polymer coating, and the payload released in the vascularized tumor regions. This approach prevents non-specific distribution of the drug and ensures stability of the peptide/drug, and utilizes the active proteases that are specific to a disease state to activate a prodrug at the region of interest.
The strategies developed for these studies are utilized in the study of biodistribution of luciferin nanoparticles. The nanoparticles are also tested using a xenograft model of prostate cancer. Appropriate cell lines have been developed for conducting experiments to study human prostate cancer models in animals. […] Both LNCaP and PC3M cells have successfully been implanted into SCID mice, and their growth kinetics have been successfully quantified using BLI. Luciferase present in the cells is used as the read out for delivery of luciferin and can also be used as for assessing tumor burden when we transition to testing chemotherapeutic agents. […]

[2] = DPPH radical scavenger assay of antioxidative activity before and after SAS processing; format: biochemical; conditions: maximum UV absorbance before and after addition of quercetin
Source text: The antioxidative activity of quercetin has not been diminished by this supercritical fluid process for nanoparticle formation. A radical scavenger DPPH (2,2,-diphenyl-1-picrylhydrazyl) was used to measure the EC50 value of DPPH at maximum UV absorbance before and after addition of quercetin.
Quercetin. Quercetin has been encapsulated with PLA (MW 50,000 and 100,000) using the following process parameters: T=40 C, P=100 bar, CO2 flow rate 50 g/min, 5:100 quercetin:polymer ratio using methanol as the cosolvent. Results can be seen in FIGS. 4A-4C. […] A radical scavenger DPPH (2,2,-diphenyl-1-picrylhydrazyl) was used to measure the EC50 value of DPPH at maximum UV absorbance before and after addition of quercetin.

stability in the body ([1]; in vivo, acted upon by various enzymes) | EC50 value of DPPH, before vs after SAS processing [2] | SMILES | distribution in the animal ([1]; L2G85 mice)
unstable in the body | – | CC(C)C[C@H](NC(=O)[C@H](CCCCN)NC(=O)[C@@H](N)CO)C(=O)N[C@@H](CCC(N)=O)C(=O)Nc1ccc2nc(C3=N[C@@H](C(=O)O)CS3)sc2c1 [SKLQ-aminoluciferin] (H-SKLQ-X1; N-terminus and C-terminus assumed) | distributed non-specifically throughout the animal
– | the same before and after SAS processing | O=c1c(O)c(-c2ccc(O)c(O)c2)oc2cc(O)cc(O)c12 [quercetin] | –
